Measurements published in US12600725B2 (Memorial Sloan-Kettering Cancer Center, priority 2013, dated 2026).
Where two headings read alike, the source gives them in different places.

Assays:
Hsp90 = Hsp90 (Homo sapiens, UniProt P08238); settings: McLaughlin et al. 2004; read-out: reported interaction with Hsp90; cited from earlier work
Grp94 [1] = biological target: T1, Grp94 (Canis lupus familiaris, UniProt P41148)
Hsp90α [2] = biological target: T2, Hsp90α (Homo sapiens, UniProt P07900); settings: Richter et al. 2008; read-out: reported binding to Hsp90α; cited from earlier work
Hsp90α [3] = biological target: T2, Hsp90α
Trap-1 [4] = biological target: T3, Trap-1 (Homo sapiens, UniProt Q12931); settings: read-out: Trap-1 IC50; 43a as FP probe
T3 sequence (Q12931 60-704): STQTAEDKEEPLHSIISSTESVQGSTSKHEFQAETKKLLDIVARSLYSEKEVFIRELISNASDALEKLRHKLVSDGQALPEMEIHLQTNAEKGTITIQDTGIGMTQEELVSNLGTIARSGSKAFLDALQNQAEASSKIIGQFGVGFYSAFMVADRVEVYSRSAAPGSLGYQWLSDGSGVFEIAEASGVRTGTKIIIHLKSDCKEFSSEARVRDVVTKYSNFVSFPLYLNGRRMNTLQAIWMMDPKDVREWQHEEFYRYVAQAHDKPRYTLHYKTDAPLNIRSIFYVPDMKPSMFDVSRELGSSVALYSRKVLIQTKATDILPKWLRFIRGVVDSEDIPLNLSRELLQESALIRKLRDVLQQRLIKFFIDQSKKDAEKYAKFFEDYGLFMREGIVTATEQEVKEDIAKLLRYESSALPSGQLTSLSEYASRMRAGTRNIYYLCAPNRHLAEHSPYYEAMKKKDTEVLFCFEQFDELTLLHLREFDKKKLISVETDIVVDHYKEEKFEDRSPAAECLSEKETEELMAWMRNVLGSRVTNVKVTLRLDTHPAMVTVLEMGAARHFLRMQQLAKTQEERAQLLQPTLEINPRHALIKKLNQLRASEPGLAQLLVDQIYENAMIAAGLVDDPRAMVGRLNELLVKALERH

Hsp90β [5] = biological target: T4, Hsp90β (Homo sapiens, UniProt P08238)
Hsp90β [6] = biological target: T4, Hsp90β; settings: Richter et al. 2008; read-out: reported binding to Hsp90β; cited from earlier work
Trap-1 [7] = biological target: T3, Trap-1; set-up: purchased Enzo Life Sciences ADI-SPP-848; settings: cited from earlier work
Grp94 [8] = biological target: T1, Grp94; assay: Hsp90 FP saturation binding assay of FP probes; set-up: other: 43a as FP probe; Grp94; apparent Kd; assay window; other: probe 115a; settings: saturation binding of FP probe
Experimental: (§1) We next determined, in a standard saturation binding experiment that measures ligand binding in the presence of varying concentration of protein, the ability of these ligands as probes for the Hsp90 paralogs (FIGS. 22b-c).
(§2) Hsp90 saturation binding assay. […] The assay window was calculated as the difference between the FP value recorded for the bound fluorescent tracer and the FP value recorded for the free fluorescent tracer (defined as mP-mPf).

Hsp90β [9] = biological target: T4, Hsp90β; assay: Hsp90 FP saturation binding assay of FP probes; settings: saturation binding of FP probe; read-out: apparent Kd
Experimental: as §1, §2

Hsp90α [10] = biological target: T2, Hsp90α; assay: Hsp90 FP saturation binding assay of FP probes; settings: saturation binding of FP probe; read-out: apparent Kd
Experimental: as §1, §2

Trap-1 [11] = biological target: T3, Trap-1; assay: Hsp90 FP saturation binding assay of FP probes; set-up: purchased Enzo Life Sciences ADI-SPP-848; settings: saturation binding of FP probe; read-out: apparent Kd
Experimental: as §1, §2

[12] = read-out: Grp94 IC50, 43a as FP probe
[13] = read-out: binding affinity (FP competition), probe 115a
[14] = read-out: Hsp90α IC50, 43a as FP probe
[15] = read-out: Hsp90β IC50, 43a as FP probe

T4 sequence (P08238 whole entry): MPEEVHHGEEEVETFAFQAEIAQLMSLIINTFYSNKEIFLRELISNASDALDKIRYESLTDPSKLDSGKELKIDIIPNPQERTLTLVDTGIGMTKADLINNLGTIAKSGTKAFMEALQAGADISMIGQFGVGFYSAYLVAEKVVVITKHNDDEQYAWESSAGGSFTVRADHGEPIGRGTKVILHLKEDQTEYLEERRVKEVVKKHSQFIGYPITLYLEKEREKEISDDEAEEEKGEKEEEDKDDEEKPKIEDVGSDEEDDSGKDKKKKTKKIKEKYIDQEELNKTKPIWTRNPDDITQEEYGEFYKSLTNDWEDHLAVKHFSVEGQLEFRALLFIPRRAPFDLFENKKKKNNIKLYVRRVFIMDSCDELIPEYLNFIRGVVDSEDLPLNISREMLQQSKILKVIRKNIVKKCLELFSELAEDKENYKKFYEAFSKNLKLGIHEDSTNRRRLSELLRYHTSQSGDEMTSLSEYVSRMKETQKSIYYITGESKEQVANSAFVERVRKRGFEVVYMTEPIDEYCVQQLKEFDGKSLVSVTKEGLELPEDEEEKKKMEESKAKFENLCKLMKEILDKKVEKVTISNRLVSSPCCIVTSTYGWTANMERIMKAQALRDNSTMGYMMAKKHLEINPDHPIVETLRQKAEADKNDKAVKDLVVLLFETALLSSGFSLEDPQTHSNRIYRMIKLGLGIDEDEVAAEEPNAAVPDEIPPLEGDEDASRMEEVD
T1 sequence (P41148 with tags, fused parts or gaps DELINS287-327GGGG): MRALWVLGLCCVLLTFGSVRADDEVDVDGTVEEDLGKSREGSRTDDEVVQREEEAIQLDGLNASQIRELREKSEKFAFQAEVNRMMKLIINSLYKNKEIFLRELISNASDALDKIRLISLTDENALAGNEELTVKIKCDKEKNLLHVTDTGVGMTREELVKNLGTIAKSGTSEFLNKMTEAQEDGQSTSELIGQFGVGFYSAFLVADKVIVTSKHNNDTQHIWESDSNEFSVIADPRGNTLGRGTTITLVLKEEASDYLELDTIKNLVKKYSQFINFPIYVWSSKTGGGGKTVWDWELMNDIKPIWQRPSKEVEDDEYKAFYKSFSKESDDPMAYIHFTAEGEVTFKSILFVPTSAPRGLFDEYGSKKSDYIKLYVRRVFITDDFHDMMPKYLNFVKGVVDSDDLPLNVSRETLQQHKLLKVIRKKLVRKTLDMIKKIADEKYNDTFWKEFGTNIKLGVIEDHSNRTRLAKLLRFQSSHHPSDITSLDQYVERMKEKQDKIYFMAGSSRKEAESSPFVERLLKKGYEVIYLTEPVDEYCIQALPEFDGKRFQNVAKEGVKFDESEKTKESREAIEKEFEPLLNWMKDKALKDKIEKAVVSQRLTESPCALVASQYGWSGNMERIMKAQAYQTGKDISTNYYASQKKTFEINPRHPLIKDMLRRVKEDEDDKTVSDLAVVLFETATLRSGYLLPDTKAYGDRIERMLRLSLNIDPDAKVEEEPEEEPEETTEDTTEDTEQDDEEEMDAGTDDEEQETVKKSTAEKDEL
Sequence of Hsp90 (P08238 whole entry): as the sequence (P08238 whole entry) above

IC50 (Grp94 [1]; [12])	IC50 (Grp94 [1]; [13])	IC50 (Hsp90α [3]; [14])	IC50 (Hsp90α [3]; [13])	IC50 (Trap-1 [4])	IC50 (Hsp90β [5]; [15])	IC50 (Hsp90β [5]; [13])	assay window (Grp94 [8])	Kd (Grp94 [8]; read-out: apparent Kd)	Kd (Hsp90β [9])	Kd (Hsp90α [10])	Kd (Trap-1 [11])	SMILES	Kd (Hsp90)	Kd (Hsp90α [2])	Kd (Hsp90β [6])	reported greater affinity of Trap-1 than Hsp90 (Trap-1 [7])
11.4 µM	11.4 µM	59.3 µM	59 µM	55.6 µM	42.2 µM	42 µM						Nc1ncnc2c1ncn2[C@@H]1O[C@H](COP(=O)(O)OP(=O)(O)O)[C@@H](O)[C@H]1O [ADP]	41 µM	51 µM	34 µM	
3.24 µM	3.2 µM	861 µM		31.3 µM	894 µM							Nc1ncnc2c1ncn2[C@@H]1O[C@H](COP(=O)(O)OP(=O)(O)OP(=O)(O)O)[C@@H](O)[C@H]1O [ATP]	840 µM			approximately 10 fold
							less than 100 mP	0.0307 µM	0.0028 µM	0.0039 µM	0.0058 µM	C[C@@H](NCCCn1c(Sc2cc(Cl)cc(Cl)c2)nc2c(N)ncnc21)C1CC1 [Compound 40]				
